SMILES strings stand for the structures.

The first assay deals with T1, wild-type human ALK (cytoplasmic domain, amino acids 1058-1620, N-terminal GST fusion) (Homo sapiens, UniProt Q9UM73).
T1 construct: The cytoplasmic domain (amino acids 1058-1620) of wild-type human ALK; GST (N); made in house; host or cells: SF9 insect cells
T1 sequence (Q9UM73 1058-1620): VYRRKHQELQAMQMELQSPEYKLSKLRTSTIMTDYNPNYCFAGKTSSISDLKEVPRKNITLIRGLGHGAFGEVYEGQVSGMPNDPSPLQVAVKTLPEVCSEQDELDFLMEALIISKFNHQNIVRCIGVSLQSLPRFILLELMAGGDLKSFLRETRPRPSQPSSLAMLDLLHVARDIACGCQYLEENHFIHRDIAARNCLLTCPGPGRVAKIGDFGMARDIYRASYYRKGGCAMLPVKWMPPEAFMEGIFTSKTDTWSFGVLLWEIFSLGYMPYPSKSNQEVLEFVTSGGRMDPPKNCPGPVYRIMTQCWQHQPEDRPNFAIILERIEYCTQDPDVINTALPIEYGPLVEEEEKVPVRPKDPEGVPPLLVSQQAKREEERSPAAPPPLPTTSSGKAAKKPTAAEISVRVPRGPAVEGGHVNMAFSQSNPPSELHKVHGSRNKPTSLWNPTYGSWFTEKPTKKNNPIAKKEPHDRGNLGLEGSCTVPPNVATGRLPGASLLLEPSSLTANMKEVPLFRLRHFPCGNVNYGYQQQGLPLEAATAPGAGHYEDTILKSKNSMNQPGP
In words: ALK Inhibition in Enzyme Assay (Lance TR-FRET kinase assay). It counts as biochemical.
Conditions: not given
The essentials: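 Purified enzyme phosphorylated a biotinylated peptide substrate for 90 minutes at room temperature. Reactions were stopped with 20 mM EDTA in 50 mM Tris (pH 7.5), 100 mM NaCl, 0.05% BSA, 0.1% Tween-20. Phosphopeptide was detected by TR-FRET with SA-APC and Eu-W1024 anti-phosphotyrosine antibody PT66, excitation 320 nm.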
Turning to `CC(C)NC(=O)[C@H]1CC[C@@H](n2/c(=N/C(=O)c3ccc4ccn(C)c4c3)[nH]c3cnc(OCCN4CCCCC4)cc32)CC1` [Example 109, (E)-N-(1-(cis-4-(Isopropylcarbamoyl)cyclohexyl)-6-(2-(piperidin-1-yl)ethoxy)-1H-imidazo[4,5-c]pyridin-2(3H)-ylidene)-1-methyl-1H-indole-6-carboxamide], the IC50 (in general, the concentration that gives 50% inhibition) is 1000 to 5000 nM.

`CC(C)NC(=O)[C@H]1CC[C@@H](n2/c(=N/C(=O)c3ccccn3)[nH]c3cnc(OCCN4CCCCC4)cc32)CC1` [Example 110, (E)-N-(1-(cis-4-(Isopropylcarbamoyl)cyclohexyl)-6-(2-(piperidin-1-yl)ethoxy)-1H-imidazo[4,5-c]pyridin-2(3H)-ylidene)picolinamide]: the IC50 lay within 1000 to 5000 nM.

With `CC(C)NC(=O)[C@H]1CC[C@@H](n2/c(=N/C(=O)c3cc(F)cc(C#N)c3)[nH]c3cnc(OCCN4CCCCC4)cc32)CC1` [Example 111, (E)-3-Cyano-5-fluoro-N-(1-(cis-4-(isopropylcarbamoyl)cyclohexyl)-6-(2-(piperidin-1-yl)ethoxy)-1H-imidazo[4,5-c]pyridin-2(3H)-ylidene)benzamide], the IC50 is under 50 nM.

The molecule `CC(C)NC(=O)[C@H]1CC[C@@H](n2/c(=N/C(=O)C3CCCCC3)[nH]c3cnc(OCCN4CCCCC4)cc32)CC1` [Example 112, cis-4-((E)-2-(Cyclohexanecarbonylimino)-6-(2-(piperidin-1-yl)ethoxy)-2,3-dihydro-1H-imidazo[4,5-c]pyridin-1-yl)-N-isopropylcyclohexanecarboxamide] yielded a concentration for half-maximal inhibition (IC50) of 5000 to 10000 nM.

Turning to `COc1cc(C(=O)/N=c2\[nH]c3cnc(OCCN4CCCCC4)cc3n2[C@H]2CC[C@@H](C(=O)NC(C)C)CC2)ccc1F` [Example 113, (E)-4-Fluoro-N-(1-(cis-4-(isopropylcarbamoyl)cyclohexyl)-6-(2-(piperidin-1-yl)ethoxy)-1H-imidazo[4,5-c]pyridin-2(3H)-ylidene)-3-methoxybenzamide], the half-inhibitory concentration (IC50) is 100 to 1000 nM.

`CC(C)NC(=O)[C@H]1CC[C@@H](n2/c(=N/C(=O)c3ccc(F)c(C(F)(F)F)c3)[nH]c3cnc(OCCN4CCCCC4)cc32)CC1` [Example 114, (E)-4-Fluoro-N-(1-(cis-4-(isopropylcarbamoyl)cyclohexyl)-6-(2-(piperidin-1-yl)ethoxy)-1H-imidazo[4,5-c]pyridin-2(3H)-ylidene)-3-(trifluoromethyl)benzamide] registered an IC50 of 50 to 100 nM.

For the molecule `CC(C)NC(=O)[C@H]1CC[C@@H](n2/c(=N/C(=O)c3cc(F)cc(Cl)c3)[nH]c3cnc(OCCN4CCCCC4)cc32)CC1` [Example 115, (E)-3-Chloro-5-fluoro-N-(1-(cis-4-(isopropylcarbamoyl)cyclohexyl)-6-(2-(piperidin-1-yl)ethoxy)-1H-imidazo[4,5-c]pyridin-2 (3H)-ylidene)benzamide], the half-inhibitory concentration (IC50) was under 50 nM.

`COc1cccc(C(=O)/N=c2\[nH]c3cnc(OCCN4CCCCC4)cc3n2[C@H]2CC[C@@H](C(=O)NC(C)C)CC2)c1` [Example 116, (E)-N-(1-(cis-4-(Isopropylcarbamoyl)cyclohexyl)-6-(2-(piperidin-1-yl)ethoxy)-1H-imidazo[4,5-c]pyridin-2(3H)-ylidene)-3-methoxybenzamide] had an IC50 of 50 to 100 nM.

Take `COc1cc(F)cc(C(=O)/N=c2\[nH]c3cnc(OCCN4CCCCC4)cc3n2[C@H]2CC[C@@H](C(=O)NC(C)C)CC2)c1` [Example 117, (E)-3-Fluoro-N-(1-(cis-4-(isopropylcarbamoyl)cyclohexyl)-6-(2-(piperidin-1-yl)ethoxy)-1H-imidazo[4,5-c]pyridin-2(3H)-ylidene)-5-methoxybenzamide]: the half-maximal inhibitory concentration (IC50) lay within 50 to 100 nM.

On to `CC(C)NC(=O)[C@H]1CC[C@@H](n2/c(=N/C(=O)c3cccc(Cl)c3)[nH]c3cnc(OCCN4CCCCC4)cc32)CC1` [Example 119, (E)-3-Chloro-N-(1-(cis-4-(isopropylcarbamoyl)cyclohexyl)-6-(2-(piperidin-1-yl)ethoxy)-1H-imidazo[4,5-c]pyridin-2(3H)-ylidene)benzamide], for which the IC50 is under 50 nM.

In turn, `CC(C)NC(=O)[C@H]1CC[C@@H](n2/c(=N/C(=O)c3ccc(S(C)(=O)=O)cc3)[nH]c3cnc(OCCN4CCCCC4)cc32)CC1` [Example 120, (E)-N-(1-(cis-4-(Isopropylcarbamoyl)cyclohexyl)-6-(2-(piperidin-1-yl)ethoxy)-1H-imidazo[4,5-c]pyridin-2(3H)-ylidene)-4-(methylsulfonyl)benzamide] registered an IC50 of 100 to 1000 nM.

Regarding `CC(C)NC(=O)[C@H]1CC[C@@H](n2/c(=N/C(=O)c3cccc(OC(F)(F)F)c3)[nH]c3cnc(OCCN4CCCCC4)cc32)CC1` [Example 121, (E)-N-(1-(cis-4-(Isopropylcarbamoyl)cyclohexyl)-6-(2-(piperidin-1-yl)ethoxy)-1H-imidazo[4,5-c]pyridin-2(3H)-ylidene)-3-(trifluoromethoxy)benzamide], the half-inhibitory concentration (IC50) was in the range of 50 to 100 nM.

In turn, `CC(C)NC(=O)[C@H]1CC[C@@H](n2/c(=N/C(=O)c3ccc(C(N)=O)cc3)[nH]c3cnc(OCCN4CCCCC4)cc32)CC1` [Example 122, (E)-N-1-(1-(cis-4-(Isopropylcarbamoyl)cyclohexyl)-6-(2-(piperidin-1-yl)ethoxy)-1H-imidazo[4,5-c]pyridin-2(3H)-ylidene)terephthalamide] returned an IC50 of 100 to 1000 nM.

`N#Cc1ccc(C(=O)/N=c2\[nH]c3cnc(OCCN4CCCCC4)cc3n2[C@H]2CC[C@@H](C(=O)N3CCNCC3)CC2)cc1` [Example 123, (E)-4-Cyano-N-(1-(cis-4-(piperazine-1-carbonyl)cyclohexyl)-6-(2-(piperidin-1-yl)ethoxy)-1H-imidazo[4,5-c]pyridin-2(3H)-ylidene)benzamide] returned an IC50 of under 50 nM.

For `CC(C)NC(=O)[C@H]1CC[C@@H](n2/c(=N/C(=O)c3cccc(F)c3)[nH]c3cnc(N4CCC(C(C)(C)O)CC4)cc32)CC1` [Example 125, (E)-3-Fluoro-N-(6-(4-(2-hydroxypropan-2-yl)piperidin-1-yl)-1-(cis-4-(isopropylcarbamoyl)cyclohexyl)-1H-imidazo[4,5-c]pyridin-2(3H)-ylidene)benzamide], the IC50 was under 50 nM.

The molecule `CC(C)NC(=O)[C@H]1CC[C@@H](n2/c(=N/C(=O)c3ccc(C#N)cc3)[nH]c3cnc(OCCO)cc32)CC1` [Example 126, (E)-4-Cyano-N-(6-(2-hydroxyethoxy)-1-(cis-4-(isopropylcarbamoyl)cyclohexyl)-1H-imidazo[4,5-c]pyridin-2(3H)-ylidene)benzamide] returned an IC50 of under 50 nM.

As for `CC(C)NC(=O)[C@H]1CC[C@@H](n2/c(=N/C(=O)c3ccc(F)cc3)[nH]c3cnc(OCCO)cc32)CC1` [Example 127, (E)-4-Fluoro-N-(6-(2-hydroxyethoxy)-1-(cis-4-(isopropylcarbamoyl)cyclohexyl)-1H-imidazo[4,5-c]pyridin-2(3H)-ylidene)benzamide], the IC50 was under 50 nM.

The molecule `CC(C)NC(=O)[C@H]1CC[C@@H](n2/c(=N/C(=O)c3ccc(F)cc3)[nH]c3cnc(OCCN4CCC(C(C)(C)O)CC4)cc32)CC1` [Example 128, (E)-4-Fluoro-N-(6-(2-(4-(2-hydroxypropan-2-yl)piperidin-1-yl)ethoxy)-1-(cis-4-(isopropylcarbamoyl)cyclohexyl)-1H-imidazo[4,5-c]pyridin-2(3H)-ylidene)benzamide] returned an IC50 of under 50 nM.

As for `CC(C)NC(=O)[C@H]1CC[C@@H](n2/c(=N/C(=O)c3ccc(C#N)cc3)[nH]c3cnc(OCCN4CCC(C(C)(C)O)CC4)cc32)CC1` [Example 129, (E)-4-Cyano-N-(6-(2-(4-(2-hydroxypropan-2-yl)piperidin-1-yl)ethoxy)-1-(cis-4-(isopropylcarbamoyl)cyclohexyl)-1H-imidazo[4,5-c]pyridin-2(3H)-ylidene)benzamide], the 50% inhibitory concentration (IC50) is under 50 nM.

On to `C=CCNS(=O)(=O)c1cccc(C(=O)/N=c2\[nH]c3cnc(OCCN4CCCCC4)cc3n2[C@H]2CC[C@H](C(=O)NC(C)C)CC2)c1` [Example 131, (E)-3-(N-Allylsulfamoyl)-N-(1-(trans-4-(isopropylcarbamoyl)cyclohexyl)-6-(2-(piperidin-1-yl)ethoxy)-1H-imidazo[4,5-c]pyridin-2(3H)-ylidene)benzamide], for which the IC50 lay within 100 to 1000 nM.

Regarding `CC(C)NC(=O)[C@H]1CC[C@@H](n2/c(=N/C(=O)NC3CCCCC3)[nH]c3cnc(OCCN4CCCCC4)cc32)CC1` [Example 132, cis-4-((E)-2-(Cyclohexylcarbamoylimino)-6-(2-(piperidin-1-yl)ethoxy)-2,3-dihydro-1H-imidazo[4,5-c]pyridin-1-yl)-N-isopropylcyclohexanecarboxamide], the concentration for half-maximal inhibition (IC50) lay in the range of 100 to 1000 nM.

On to `CC(C)NC(=O)[C@H]1CC[C@@H](n2/c(=N/C(=O)N3CCOCC3)[nH]c3cnc(OCCN4CCCCC4)cc32)CC1` [Example 133, (E)-N-(1-(cis-4-(Isopropylcarbamoyl)cyclohexyl)-6-(2-(piperidin-1-yl)ethoxy)-1H-imidazo[4,5-c]pyridin-2(3H)-ylidene)morpholine-4-carboxamide], for which the half-maximal inhibitory concentration (IC50) lay in the range of 100 to 1000 nM.

As for `CC(C)NC(=O)[C@H]1CC[C@@H](n2/c(=N/C(=O)N3CCCC3)[nH]c3cnc(OCCN4CCCCC4)cc32)CC1` [Example 134, (E)-N-(1-(cis-4-(Isopropylcarbamoyl)cyclohexyl)-6-(2-(piperidin-1-yl)ethoxy)-1H-imidazo[4,5-c]pyridin-2(3H)-ylidene)pyrrolidine-1-carboxamide], the IC50 fell in the range of 50 to 100 nM.

The same assay, now with this note: 2 nM enzyme, ATP 40 μM (Km apparent), 90 minutes at room temperature; mean of three replicates.
With `CC(C)NC(=O)[C@H]1CC[C@@H](n2/c(=N/C(=O)c3ccc(F)c(Cl)c3)[nH]c3cnc(OCCN4CCCCC4)cc32)CC1` [Example 118, (E)-3-Chloro-4-fluoro-N-(1-(cis-4-(isopropylcarbamoyl)cyclohexyl)-6-(2-(piperidin-1-yl)ethoxy)-1H-imidazo[4,5-c]pyridin-2(3H)-ylidene)benzamide], the half-maximal inhibitory concentration (IC50) is under 50 nM.
